Article PMC12650660, “Novel Synthetic Strategies Towards Analogues of Cadaside and Malacidin Antibiotic Peptides” (Biomolecules, 2025)
In brackets after ≈: the same amount, converted by molar mass. Entries after “also recorded” stand apart in the source; their conditions may differ. Numbered stars: 1 amine (or outer) side, 2 acyl side, 3 side chain; on linkers, the order of the positions; unused ones are H or OH. Bridge positions count the residues as written; N and C are the ends. Square brackets hold non-standard residues; d marks the D form. Peptide text beside a SMILES is read from it. * marks the point of attachment. β2hAla(R) = C[C@H](CN[*:1])C(=O)[*:2]; Decanoyl = CCCCCCCCCC(=O)*; Dap = NC[C@H](N)C(=O)O; Sar = CNCC(=O)O

Key:
[1] = head-to-tail type lactamisation of side-chain-protected branched depsipeptide (Gly10 N-terminus of ester branch + C-terminal Pro9), HATU/DIPEA (pH ~10), microwave; conditions: the molecule shown is the open-chain precursor, DCM, 6.0 mM, 70.0 °C, 1.0 h
[2] = tested on: B. subtilis 168; format: cell-based; conditions: 168, 24 h
Procedure: MICs were measured in triplicate by microbroth dilution. An overnight culture of B. subtilis 168 (DSMZ German Collection of Microorganisms and Cell Cultures GmbH) was inoculated at 5 × 10^5 CFU/mL in cation-adjusted Mueller–Hinton broth (MHB II) with or without 15 mM or 100 mM CaCl2. Serial two-fold peptide dilutions (128 - 1 µg/mL for analogues and 16 - 0.25 µg/mL for daptomycin) were incubated in polypropylene U-bottom 96-well plates (200 µL final volume) at 37 °C for 24 h. MIC was the lowest concentration at which no growth was observed. Optical density measurements at 620 nm were performed using a Thermo Scientific Multiskan FC (Thermo Fisher Scientific Inc., Paisley, UK). MIC was determined from the lowest concentration at which no tubidity was observed, using an untreated positive growth control, and a broth-only sterility control as references.

[3] = TLC precursor-binding assay with lipid II; design: key to Lipid II (TLC binding): “+” indicates binding confirmed; “-” indicates no binding; “~” indicates potential binding with absence of precursor band; conditions: for Lipid II (TLC binding): peptide 0.5, 1, 2 equiv. (nisin 0.1, 0.5, 1 equiv.) with lipid II in Tris·HCl pH 7.5, 50 mM CaCl2, 1 h, silica TLC
Procedure: (§1) Lipid II and undecaprenyl phosphate (C55-P) (1 equiv., 30 µL) in Tris•HCl buffer (0.2% Triton X-100, 26 mM MgCl2, and 50 mM CaCl2 at pH 7.5) were incubated with the peptides (0.5, 1, 2 equiv.) or nisin (0.1, 0.5, 1 equiv.) in 30 µL water for 1 h. The reaction was then extracted with ^tBuOH/6 M PyOAc (2/1 v/v, 100 µL) and the organic phase was dried using an Eppendorf vacuum centrifuge 5301 (Fisher Scientific, Loughborough, UK) under reduced pressure. The solid was redissolved in CHCl3/MeOH (1/1 v/v, 30–60 µL) for spotting onto the TLC plates. In addition to the peptide–lipid mixtures, a control of each peptide/nisin with 30 µL buffer, and a control of each lipid with 30 µL HPLC-grade water were also incubated and subjected to the same workup. Silica TLC plates were run in a CHCl3/MeOH/H2O/NH3 (88/48/10/1 v/v) solvent system and stained using iodine vapour, phosphomolybdic acid (PMA), or KMnO4 stain, as well as visualisation at 254 nm and 365 nm.

[4] = TLC precursor-binding assay with C55-P; design: key to C55-P (TLC binding): “+” indicates binding confirmed; “-” indicates no binding; “~” indicates potential binding with absence of precursor band; conditions: for C55-P (TLC binding): peptide 0.5, 1, 2 equiv. with C55-P in Tris·HCl pH 7.5, 50 mM CaCl2, 1 h, silica TLC
Procedure: as §1

| Structure (SMILES) | ring closure, overall yield ([1]; 28-membered ring) [%] | MIC + Ca^2+ [2] [µg/mL] | MIC − Ca^2+ [2] [µg/mL] | Lipid II (TLC binding) [3] | C55-P (TLC binding) [4] | also measured |
| --- | --- | --- | --- | --- | --- | --- |
| CCCCCCCCCC(=O)NC[C@@H](C)C(=O)NCC(=O)N[C@H](CCC(=O)OC(C)(C)C)C(=O)N[C@@H](Cc1ccc(OC(C)(C)C)cc1)C(=O)N[C@H](C(=O)N[C@@H](C(=O)N[C@@H](CC(=O)OC(C)(C)C)C(=O)N[C@@H](CC(=O)OC(C)(C)C)C(=O)N1CCC[C@H]1C(=O)O)[C@H](C)CC)[C@@H](C)OC(=O)CN(C)C(=O)[C@H](CCC(=O)OC(C)(C)C)NC(=O)[C@H](CC(=O)OC(C)(C)C)NC(=O)CN | 0.2 |  |  |  |  |  |
| CCCCCCCCCC(=O)NC[C@@H](C)C(=O)NCC(=O)N[C@H](CCC(=O)OC(C)(C)C)C(=O)N[C@@H](Cc1ccc(OC(C)(C)C)cc1)C(=O)N[C@H](C(=O)N[C@@H](C(=O)N[C@@H](CC(=O)OC(C)(C)C)C(=O)N[C@@H](CC(=O)OC(C)(C)C)C(=O)N1CCC[C@H]1C(=O)O)[C@H](C)CC)[C@@H](C)OC(=O)CN(C)C(=O)[C@H](CCC(=O)OC(C)(C)C)NC(=O)CNC(=O)[C@@H](CCC(=O)OC(C)(C)C)NC(=O)CN |  |  |  |  |  | ring closure, overall yield ([1]; 31-membered ring): 0.3% |
| CCCCCCCCCC(=O)NC[C@@H](C)C(=O)NCC(=O)N[C@H](CCC(=O)OC(C)(C)C)C(=O)N[C@@H](Cc1ccc(OC(C)(C)C)cc1)C(=O)N[C@H](C(=O)N[C@@H](C(=O)N[C@@H](CC(=O)OC(C)(C)C)C(=O)N[C@@H](CC(=O)OC(C)(C)C)C(=O)N1CCC[C@H]1C(=O)O)[C@H](C)CC)[C@@H](C)OC(=O)CN(C)C(=O)[C@H](CC(=O)OC(C)(C)C)NC(=O)CNC(=O)[C@H](CC(=O)OC(C)(C)C)NC(=O)CN |  |  |  |  |  | ring closure, overall yield ([1]; 31-membered ring): 0.3% |
| CCCCCCCCCC(=O)NC[C@@H](C)C(=O)NCC(=O)N[C@H](CCC(=O)OC(C)(C)C)C(=O)N[C@@H](Cc1ccc(OC(C)(C)C)cc1)C(=O)N[C@H](C(=O)N[C@@H](C(=O)N[C@@H](CC(=O)OC(C)(C)C)C(=O)N[C@@H](CC(=O)OC(C)(C)C)C(=O)N1CCC[C@H]1C(=O)O)[C@H](C)CC)[C@@H](C)OC(=O)CN(C)C(=O)[C@H](CC(=O)OC(C)(C)C)NC(=O)[C@H](CC(=O)OC(C)(C)C)NC(=O)CN | 0.4 |  |  |  |  |  |
| CCCCCCCCCC(=O)NC[C@@H](C)C(=O)NCC(=O)N[C@H](CCC(=O)OC(C)(C)C)C(=O)N[C@@H](Cc1ccc(OC(C)(C)C)cc1)C(=O)N[C@H](C(=O)N[C@@H](C(=O)N[C@@H](CC(=O)OC(C)(C)C)C(=O)N[C@@H](CC(=O)OC(C)(C)C)C(=O)N1CCC[C@H]1C(=O)O)[C@H](C)CC)[C@@H](C)OC(=O)CN(C)C(=O)[C@H](CCC(=O)OC(C)(C)C)NC(=O)[C@H](CCC(=O)OC(C)(C)C)NC(=O)CN | 1 |  |  |  |  |  |
| CCCCCCCCCC(=O)NC[C@@H](C)C(=O)NCC(=O)N[C@H](CCC(=O)OC(C)(C)C)C(=O)N[C@@H](Cc1ccc(OC(C)(C)C)cc1)C(=O)N[C@H](C(=O)N[C@@H](C(=O)N[C@@H](CC(=O)OC(C)(C)C)C(=O)N[C@@H](CC(=O)OC(C)(C)C)C(=O)N1CCC[C@H]1C(=O)O)[C@H](C)CC)[C@@H](C)OC(=O)CN(C)C(=O)[C@H](CCC(=O)OC(C)(C)C)NC(=O)[C@@H](CCC(=O)OC(C)(C)C)NC(=O)CN | 0.5 |  |  |  |  |  |
| CCCCCCCCCC(=O)NC[C@@H](C)C(=O)NCC(=O)N[C@H](CCC(=O)O)C(=O)N[C@@H](Cc1ccc(O)cc1)C(=O)N[C@@H]1C(=O)N[C@H]([C@H](C)CC)C(=O)N[C@@H](CC(=O)O)C(=O)N[C@@H](CC(=O)O)C(=O)N2CCC[C@H]2C(=O)NCC(=O)N[C@H](CC(=O)O)C(=O)N[C@@H](CC(=O)O)C(=O)N(C)CC(=O)O[C@@H]1C [Peptide C3] (Decanoyl-[β2hAla(R)]G[dE]YT[dI]DDPG[dD]D[Sar]; ester 5-C) |  | 128 | 128 (≈ 86 µM) | - | ~ | C55-P spot on TLC after incubation with peptide (in words) ([4]; absence of C55-P spot = potential indicator of binding, KMnO4 staining in Figure S5): no spots for C55-P; also recorded: no longer visible |
| CCCCCCCCCC(=O)N[C@@H](CC(=O)O)C(=O)N[C@H]1CNC(=O)[C@@H]2CCCN2C(=O)[C@H](C(C)C)NC(=O)[C@H](CC(=O)O)NC(=O)CNC(=O)[C@H](CC(=O)O)NC(=O)CNC(=O)[C@H](CC(=O)O)NC(=O)[C@H](CCCCN)NC(=O)[C@@H](C(C)C)NC1=O [Peptide M3] (Decanoyl-D[Dap][dV]KDGDGDVP; lactam 2-C) |  | 128 | 128 (≈ 103 µM) | - | - | binding to lipid II in TLC assay (in words) ([3]; lipid II spot on TLC after incubation, PMA staining in Figure S6): lack of binding |
| CCCCCCCCCC(=O)N[C@@H](CC(=O)O)C(=O)N[C@H]1CNC(=O)[C@@H]2CCCN2C(=O)[C@H](C(C)C)NC(=O)CNC(=O)[C@@H](CC(=O)O)NC(=O)CNC(=O)[C@H](CC(=O)O)NC(=O)[C@H](CC(=O)O)NC(=O)[C@H](CCCCN)NC(=O)[C@@H](C(C)C)NC1=O [Peptide M4] (Decanoyl-D[Dap][dV]KDDG[dD]GVP; lactam 2-C) |  | 128 | 128 (≈ 103 µM) | - | - |  |
| CCCCCCCCCC(=O)NC[C@@H](C)C(=O)NCC(=O)N[C@H](CCC(=O)O)C(=O)N[C@@H](Cc1ccc(O)cc1)C(=O)N[C@@H]1C(=O)N[C@H]([C@H](C)CC)C(=O)N[C@@H](CC(=O)O)C(=O)N[C@@H](CC(=O)O)C(=O)N2CCC[C@H]2C(=O)NCC(=O)N[C@@H](CC(=O)O)C(=O)N[C@@H](CC(=O)O)C(=O)N(C)CC(=O)O[C@@H]1C [Peptide C4] (Decanoyl-[β2hAla(R)]G[dE]YT[dI]DDPGDD[Sar]; ester 5-C) |  | 128 | 128 (≈ 86 µM) | - | - |  |
| CCCCCCCCCC(=O)NC[C@@H](C)C(=O)NCC(=O)N[C@H](CCC(=O)O)C(=O)N[C@@H](Cc1ccc(O)cc1)C(=O)N[C@@H]1C(=O)N[C@H]([C@H](C)CC)C(=O)N[C@@H](CC(=O)O)C(=O)N[C@@H](CC(=O)O)C(=O)N2CCC[C@H]2C(=O)NCC(=O)N[C@H](CCC(=O)O)C(=O)N[C@@H](CCC(=O)O)C(=O)N(C)CC(=O)O[C@@H]1C [Peptide C1a] (Decanoyl-[β2hAla(R)]G[dE]YT[dI]DDPG[dE]E[Sar]; ester 5-C) |  | 128 | 128 (≈ 84.4 µM) | - | - |  |
| CCCCCCCCCC(=O)NC[C@@H](C)C(=O)NCC(=O)N[C@H](CCC(=O)O)C(=O)N[C@@H](Cc1ccc(O)cc1)C(=O)N[C@@H]1C(=O)N[C@H]([C@H](C)CC)C(=O)N[C@@H](CC(=O)O)C(=O)N[C@@H](CC(=O)O)C(=O)N2CCC[C@H]2C(=O)NCC(=O)N[C@H](CC(=O)O)C(=O)N[C@@H](CCC(=O)O)C(=O)N(C)CC(=O)O[C@@H]1C [Peptide C5] (Decanoyl-[β2hAla(R)]G[dE]YT[dI]DDPG[dD]E[Sar]; ester 5-C) |  | 128 | 128 (≈ 85.2 µM) | - | - |  |
| CCCCCCCCCC(=O)NC[C@@H](C)C(=O)NCC(=O)N[C@H](CCC(=O)O)C(=O)N[C@@H](Cc1ccc(O)cc1)C(=O)N[C@@H]1C(=O)N[C@H]([C@H](C)CC)C(=O)N[C@@H](CC(=O)O)C(=O)N[C@@H](CC(=O)O)C(=O)N2CCC[C@H]2C(=O)NCC(=O)N[C@@H](CCC(=O)O)C(=O)N[C@@H](CC(=O)O)C(=O)N(C)CC(=O)O[C@@H]1C [Peptide C8] (Decanoyl-[β2hAla(R)]G[dE]YT[dI]DDPGED[Sar]; ester 5-C) |  | 128 | 128 (≈ 85.2 µM) | - | - |  |
